Here are results for 25 compounds from patent publication US20230135729A1, “COMPOUND WITH ANTI-SPORE ACTIVITY AND PHARMACEUTICAL COMPOSITION THEREOF” (priority 2020, published 2023).

In brackets after ≈: the same amount, converted by molar mass. Like-named read-outs stand apart in the source and are kept apart here.

What all share (assay type): cell-based
Assay [1] has as its system spores of ATCC 630 strain. In words: Inhibition of germination of C. difficile spores (MIC), strain ATCC 630. The conditions noted are these: Clostridioides difficile, ATCC630, 1 h, read-out: MIC (minimum concentration that completely inhibits spore germination). As to the method: (§1) According to a method disclosed in “The Journal of Infectious Diseases. 2013; 207: 1498-504”, spores of ATCC BBA1870, ATCC 43255 and ATCC 630 strains were obtained by culture and purification, and stored at 4° C.
(§2) Spore preparation: the C. difficile spores stored at 4° C. were heat-activated for 30 min at 65° C., centrifuged at 9,400 g for 2 min, and washed three times to remove any self-germinating spores.
(§3) Control drug: three cholic acid derivatives, a compound CamSA, a compound 20β (prepared by the method of “Journal of Medicinal Chemistry. 2017, 60 (8): 3451-3471”), and a compound 12a (prepared by the method of “Journal of Medicinal Chemistry. 2018, 61, 6759-6778”), were used as control drugs.
(§4) Compound preparation: the compound of the present disclosure, and the positive control drugs CamSA, 20β, and 12a were dissolved in DMSO, to prepare a stock solution with a concentration of 10 mM (prepared for immediate use).
(§5) The detection was conducted in a 96-well cell culture plate at a constant temperature of 37° C.; a final volume of each well of the 96-well plate was […] and a buffer was the BHIS medium; 150 μl of spores and drugs were added to the well in advance, and 50 μl of 4 mg/ml sodium taurocholate was added; OD580 was detected every 1 min immediately using a microplate reader, for continuously 60 min. A germination agent control group and a non-germination group were set up; after the detection, a final OD value of each well was compared with an initial value, and compared with the germination agent group to calculate a germination rate and an inhibition rate. A formula for the germination rate was:
(§6) Inhibition rate=100%−germination rate.

Assay [2] relates to spores of ATCC 43255 strain. Nature of the assay: Inhibition of germination of C. difficile spores (MIC), strain ATCC 43255. The conditions noted are these: Clostridioides difficile, ATCC43255, 1 h, read-out: MIC (minimum concentration that completely inhibits spore germination). The protocol: as §1, §2, §3, §4, §5, §6
Assay [3] concerns spores of ATCC BBA1870 strain. Nature of the assay: Inhibition of germination of C. difficile spores (MIC), strain ATCC BBA1870. The conditions noted are these: Clostridioides difficile, ATCCBBA1870STRAIN, 1 h, read-out: MIC (minimum concentration that completely inhibits spore germination). The protocol: as §1, §2, §3, §4, §5, §6
Setting [4] is: strain 630, sodium taurocholate as germinant, BHIS medium, 37° C., OD580 for 60 min.
[5] abbreviates: strain 43255, sodium taurocholate as germinant, BHIS medium, 37° C., OD580 for 60 min.
The mark [6] stands for this setting: strain 1870, sodium taurocholate as germinant, BHIS medium, 37° C., OD580 for 60 min.

For the compound `C[C@H](CC(=O)NC(c1ccccc1)c1cccs1)[C@H]1CC[C@H]2[C@@H]3C(=O)C[C@@H]4CC(=O)CC[C@]4(C)[C@H]3CC[C@]12C` (stereo partly drawn) [Compound I-55], the results for the MIC in assay [1] (setting [4]), in assay [2] (setting [5]) and in assay [3] (setting [6]) were 32 µM (≈ 17.5 µg/mL), 32 µM (≈ 17.5 µg/mL) and 64 µM (≈ 34.9 µg/mL), respectively.
For `CC[C@@H](NC(=O)C[C@@H](C)[C@H]1CC[C@H]2[C@@H]3[C@H](O)CC4=CC(=O)C=C[C@]4(C)[C@H]3CC[C@]12C)c1ccc(Br)s1` [Compound I-159-2], the MIC in assay [1] (setting [4]), in assay [2] (setting [5]) and in assay [3] (setting [6]) was 0.5 µM (≈ 0.287 µg/mL) each time.
As for `Cc1ccc(C(C)NC(=O)C[C@@H](C)[C@H]2CC[C@H]3[C@@H]4C(=O)C[C@@H]5CC(=O)CC[C@]5(C)[C@H]4CC[C@]23C)s1` (stereo partly drawn) [Compound I-30], the figures for the MIC in assay [1] (setting [4]), in assay [2] (setting [5]) and in assay [3] (setting [6]) were 1 µM (≈ 0.498 µg/mL), 2 µM (≈ 0.995 µg/mL) and 2 µM (≈ 0.995 µg/mL), respectively.
On to `CC(C)[C@@H](NC(=O)C[C@@H](C)[C@H]1CC[C@H]2[C@@H]3C(=O)C[C@@H]4CC(=O)CC[C@]4(C)[C@H]3CC[C@]12C)c1ccc(Cl)s1` [Compound I-77], for which the MIC in assay [1] (setting [4]), in assay [2] (setting [5]) and in assay [3] (setting [6]) was 0.25 µM (≈ 0.137 µg/mL) each time.
Consider `CC(C)[C@@H](NC(=O)C[C@@H](C)[C@H]1CC[C@H]2[C@@H]3C[C@H](O)[C@@H]4C[C@H](O)CC[C@]4(C)[C@H]3CC[C@]12C)c1ccc(Br)s1` [Compound I-128], for which the MIC in assay [1] (setting [4]) turned out to be 1 µM (≈ 0.595 µg/mL); in assay [2] (setting [5]), 2 µM (≈ 1.19 µg/mL); in assay [3] (setting [6]), 2 µM (≈ 1.19 µg/mL).
On to `CC[C@@H](NC(=O)C[C@@H](C)[C@H]1CC[C@H]2[C@@H]3[C@H](O)[C@H](O)[C@@H]4C[C@H](O)CC[C@]4(C)[C@H]3CC[C@]12C)c1ccc(Cl)s1` [Compound I-117], for which the values for the MIC in assay [1] (setting [4]), in assay [2] (setting [5]) and in assay [3] (setting [6]) were 4 µM (≈ 2.21 µg/mL), 8 µM (≈ 4.42 µg/mL) and 8 µM (≈ 4.42 µg/mL), respectively.
In the case of `CCC(NC(=O)C[C@@H](C)[C@H]1CC[C@H]2[C@@H]3[C@H](OS(=O)(=O)O)C[C@@H]4CC(=O)CC[C@]4(C)[C@H]3CC[C@]12C)c1ccc(Br)s1` (stereo partly drawn) [Compound I-107], the MIC in assay [1] (setting [4]), in assay [2] (setting [5]) and in assay [3] (setting [6]) was 1 µM (≈ 0.659 µg/mL) in each case.
`CC[C@@H](NC(=O)C[C@@H](C)[C@H]1CC[C@H]2[C@@H]3CC[C@@H]4C[C@H](O)CC[C@]4(C)[C@H]3CC[C@]12C)c1ccc(Br)s1` [Compound I-147]: the results for the MIC in assay [1] (setting [4]), in assay [2] (setting [5]) and in assay [3] (setting [6]) were 16 µM (≈ 9.03 µg/mL), 16 µM (≈ 9.03 µg/mL) and 32 µM (≈ 18.1 µg/mL), respectively.
Take `CC[C@@H](NC(=O)C[C@@H](C)[C@H]1CC[C@H]2[C@@H]3[C@H](O)CC4=CC(=O)CC[C@]4(C)[C@H]3CC[C@]12C)c1ccc(Cl)s1` [Compound I-157-2]: the MIC was found to be 0.25 µM (≈ 0.133 µg/mL) in assay [1] (setting [4]), 0.5 µM (≈ 0.266 µg/mL) in assay [2] (setting [5]) and 0.25 µM (≈ 0.133 µg/mL) in assay [3] (setting [6]).
As for `CC[C@@H](NC(=O)C[C@@H](C)[C@H]1CC[C@H]2[C@@H]3[C@H](N)C[C@@H]4C[C@H](O)CC[C@]4(C)[C@H]3CC[C@]12C)c1ccc(Cl)s1` [Compound I-171], the MIC in assay [1] (setting [4]), in assay [2] (setting [5]) and in assay [3] (setting [6]) was 32 µM (≈ 17.1 µg/mL) throughout.
Turning to `CC[C@@H](NC(=O)C[C@@H](C)[C@H]1CC[C@H]2[C@@H]3[C@H](O)C[C@@H]4C[C@H](O)CC[C@]4(C)[C@H]3CC[C@]12C)c1ccc(Cl)s1` [Compound I-137], the MIC in assay [1] (setting [4]), in assay [2] (setting [5]) and in assay [3] (setting [6]) was 1 µM (≈ 0.536 µg/mL) in each case.
As for `CC(C)C(NC(=O)C[C@@H](C)[C@H]1CC[C@H]2[C@@H]3C(=O)C[C@@H]4CC(=O)CC[C@]4(C)[C@H]3CC[C@]12C)c1cccs1` (stereo partly drawn) [Compound I-40], the MIC in assay [1] (setting [4]) stood at 2 µM (≈ 1.02 µg/mL); in assay [2] (setting [5]), 2 µM (≈ 1.02 µg/mL); in assay [3] (setting [6]) it was 4 µM (≈ 2.05 µg/mL).
Turning to `CC[C@@H](NC(=O)C[C@@H](C)[C@H]1CC[C@H]2[C@@H]3[C@H](O)C[C@@H]4CC(=O)CC[C@]4(C)[C@H]3CC[C@]12C)c1cccs1` [Compound I-133], the MIC in assay [1] (setting [4]), in assay [2] (setting [5]) and in assay [3] (setting [6]) was 2 µM (≈ 1 µg/mL) in each case.
`CC(C)[C@@H](NC(=O)C[C@@H](C)[C@H]1CC[C@H]2[C@@H]3[C@H](N)C[C@@H]4CC(=O)CC[C@]4(C)[C@H]3CC[C@]12C)c1ccc(Cl)s1` [Compound I-174]: the MIC in assay [1] (setting [4]), in assay [2] (setting [5]) and in assay [3] (setting [6]) was 32 µM (≈ 17.5 µg/mL) in each case.
Regarding `CC(C)[C@H](NC(=O)C[C@@H](C)[C@H]1CC[C@H]2[C@@H]3C(=O)C[C@@H]4CC(=O)CC[C@]4(C)[C@H]3CC[C@]12C)c1ccc(S(=O)(=O)O)s1` [Compound I-82], the MIC is above 256 µM in assay [1] (setting [4]), 256 µM (≈ 152 µg/mL) in assay [2] (setting [5]) and above 256 µM in assay [3] (setting [6]).
`CC[C@@H](NC(=O)C[C@@H](C)[C@H]1CC[C@H]2[C@@H]3C(=O)C[C@@H]4CC(=O)CC[C@]4(C)[C@H]3CC[C@]12C)c1ccc(Br)s1` [Compound I-72]: the MIC in assay [1] (setting [4]) came out at 0.5 µM (≈ 0.288 µg/mL); in assay [2] (setting [5]) it was 1 µM (≈ 0.577 µg/mL); in assay [3] (setting [6]), 1 µM (≈ 0.577 µg/mL).
As to `CC(C)[C@@H](NC(=O)C[C@@H](C)[C@H]1CC[C@H]2[C@@H]3[C@H](OS(=O)(=O)O)C[C@@H]4CC(=O)CC[C@]4(C)[C@H]3CC[C@]12C)c1ccc(Br)s1` [Compound I-115], the MIC was 0.5 µM (≈ 0.336 µg/mL) in assay [1] (setting [4]), 0.25 µM (≈ 0.168 µg/mL) in assay [2] (setting [5]) and 0.5 µM (≈ 0.336 µg/mL) in assay [3] (setting [6]).
Regarding `CC[C@H](NC(=O)C[C@@H](C)[C@H]1CC[C@H]2[C@@H]3C(=O)C[C@@H]4CC(=O)CC[C@]4(C)[C@H]3CC[C@]12C)c1ccccc1` [Compound I-59], the values for the MIC in assay [1], in assay [2] and in assay [3] were 64 µM (≈ 31.5 µg/mL), 64 µM (≈ 31.5 µg/mL) and 128 µM (≈ 62.9 µg/mL), respectively.
On to `CC(C)[C@H](NC(=O)C[C@@H](C)[C@H]1CC[C@H]2[C@@H]3[C@H](O)C[C@@H]4CC(=O)CC[C@]4(C)[C@H]3CC[C@]12C)c1ccc(S(=O)(=O)O)s1` [Compound I-102], for which the MIC in assay [1] (setting [4]), in assay [2] (setting [5]) and in assay [3] (setting [6]) was above 256 µM each time.
As to `CC[C@@H](NC(=O)C[C@@H](C)[C@H]1CC[C@H]2[C@@H]3[C@H](O)C[C@@H]4C[C@H](O)CC[C@]4(C)[C@H]3C[C@H](O)[C@]12C)c1ccc(Cl)s1` [Compound I-145], the MIC in assay [1] (setting [4]) was 16 µM (≈ 8.84 µg/mL); in assay [2] (setting [5]), 32 µM (≈ 17.7 µg/mL); in assay [3] (setting [6]), 32 µM (≈ 17.7 µg/mL).
For the compound `C[C@H](CC(=O)NCC1CC1)[C@H]1CC[C@H]2[C@@H]3[C@@H](O)C[C@@H]4C[C@H](O)CC[C@]4(C)[C@H]3CC[C@]12C` [Compound I-10], the MIC in assay [1] (setting [4]), in assay [2] (setting [5]) and in assay [3] (setting [6]) was 32 µM (≈ 13.8 µg/mL) in each case.
Regarding `CC[C@@H](NC(=O)C[C@@H](C)[C@H]1CC[C@H]2[C@@H]3[C@H](O)[C@H](O)[C@@H]4CC(=O)CC[C@]4(C)[C@H]3CC[C@]12C)c1ccc(Br)s1` [Compound I-124], the MIC in assay [1] (setting [4]), in assay [2] (setting [5]) and in assay [3] (setting [6]) was 64 µM (≈ 38.1 µg/mL) in each case.
For `CC(C)[C@@H](NC(=O)C[C@@H](C)[C@H]1CC[C@H]2[C@@H]3C(=O)CC4=CC(=O)C=C[C@]4(C)[C@H]3CC[C@]12C)c1ccc(Cl)s1` [Compound I-154], the MIC in assay [1] (setting [4]) was 0.5 µM (≈ 0.271 µg/mL); in assay [2] (setting [5]) it was 0.5 µM (≈ 0.271 µg/mL); in assay [3] (setting [6]) it was 1 µM (≈ 0.542 µg/mL).
Regarding `CCCCCCCC(=O)O[C@@H]1C[C@@H]2CC(=O)CC[C@]2(C)[C@H]2CC[C@]3(C)[C@@H]([C@H](C)CC(=O)N[C@H](CC)c4ccc(Br)s4)CC[C@H]3[C@H]12` [Compound I-184], the MIC in assay [1] (setting [4]), in assay [2] (setting [5]) and in assay [3] (setting [6]) was 128 µM (≈ 90.2 µg/mL) each time.
As for `CC(C)[C@@H](NC(=O)C[C@@H](C)[C@H]1CC[C@H]2[C@@H]3[C@H](OC(=O)CCC(=O)O)C[C@@H]4CC(=O)CC[C@]4(C)[C@H]3CC[C@]12C)c1ccc(Cl)s1` [Compound I-181], the MIC in assay [1] (setting [4]), in assay [2] (setting [5]) and in assay [3] (setting [6]) was 2 µM (≈ 1.3 µg/mL) each time.
